Assay in all cases: NCI tumour cell line growth inhibition, 48 h
Assay [1] relates to CAKI-1 renal.
The subject of assay [2] is IGROV1 ovarian.
Assay [3] has as its system SK-MEL-2 melanoma.
The test system of assay [4] is MDA-MB-231 breast.
The subject of assay [5] is HCT-15 colon.
In assay [6] the test system is HCC-2998 colon.
In assay [7] the test system is HOP-92 NSCLC.
For assay [8], the system named is MCF7 breast.
Assay [9] concerns UO-31 renal.
In assay [10] the test system is OVCAR-3 ovarian.
Assay [11] relates to CCRF-CEM leukemia.
Assay [12] deals with SF-268 CNS.
The test system of assay [13] is MOLT-4 leukemia.
The test system of assay [14] is HT29 colon.
Assay [15] deals with U251 CNS.
In assay [16] the test system is DU-145 prostate.
Assay [17] has as its system RPMI-8226 leukemia.
Assay [18] relates to SK-MEL-5 melanoma.
In assay [19] the test system is OVCAR-4 ovarian.

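Briefly, cells in 96-well plates were exposed to five compound concentrations for 48 h, and endpoints were estimated by linear interpolation. The concentration for full growth arrest is given as TGI.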

Experimental findings from PubChem BioAssay (NCI) are described below.

Turning to `Cc1ccc(-n2cnc3c(N)nc(N)nc32)cc1`, the TGI in [1], in assay [2], in assay [3], in assay [4], in assay [5] and in assay [6] was greater than 100 µM each time. Further, the TGI in assay [7], in [8], in [9], in [10], in assay [11] and in assay [12] was greater than 100 µM throughout. Further, the TGI in assay [13], in assay [14], in [15], in assay [16], in assay [17] and in assay [18] was greater than 100 µM each time. The same compound showed a TGI in assay [19] greater than 100 µM.
On to `COC(=O)c1c(O)ccc2c1c1c(n2Cc2ccccc2)C(=O)c2ccccc2C1=O`, for which the TGI was determined as 36.9 µM in assay [1]; 25.8 µM in assay [2]; 27.7 µM in assay [3]; 32.2 µM in assay [4]; 30.3 µM in assay [5]; 17.9 µM in [6]. The TGI in [7] was 27.1 µM; in assay [8], 35 µM; in assay [9], 22.1 µM; in assay [10], 47.5 µM; in assay [11], 46.8 µM; in assay [12] it was 33 µM. Besides, the TGI stood at 25.3 µM in [13]; 22.6 µM in assay [14]; 29.2 µM in assay [15]; 49.9 µM in [16]; 29.2 µM in [17]; 31.9 µM in [18]. The compound also showed a TGI in [19] of 24.3 µM.
For the compound `CC(C)(C)[Si](C)(C)O[C@@H](C(=O)OC1C=CCCC1)[C@@H](NC(=O)c1ccccc1)c1ccccc1` (some centres not stated), the TGI in assay [1] is greater than 100 µM; in assay [2], greater than 100 µM; in assay [3], 48.6 µM; in assay [4], greater than 100 µM; in assay [5] it was greater than 100 µM; in assay [6] it was 44.4 µM. Further, the TGI in [7] was 99.5 µM; in assay [8], 59.9 µM; in [9], greater than 100 µM; in [10], greater than 100 µM; in assay [11], 32.5 µM; in assay [12], greater than 100 µM. In addition, the TGI in assay [13] was 39.3 µM; in assay [14], 49.5 µM; in assay [15] it was greater than 100 µM; in assay [16], greater than 100 µM; in assay [17], 9.89 µM; in [18], 37.2 µM. The compound further returned a TGI in [19] greater than 100 µM.
For the compound `N=c1oc2ccc([N+](=O)[O-])cc2cc1C(=O)NCc1ccccc1`, the TGI in assay [1] is 36.2 µM; in [2], 30.9 µM; in assay [3], 39.1 µM; in [4] it was 60.9 µM; in assay [5], 33.5 µM; in assay [6], greater than 100 µM. Moreover, the TGI is 36.7 µM in assay [7]; greater than 100 µM in assay [8]; 35.8 µM in assay [9]; greater than 100 µM in [11]; 40.6 µM in assay [12]; greater than 100 µM in [13]. In addition, the TGI in assay [14] was 40.7 µM; in [15], 83 µM; in assay [16], greater than 100 µM; in assay [17], greater than 100 µM; in assay [18] it was 41.6 µM; in assay [19], 63.5 µM.
Turning to `CC(=O)C(I(OS(=O)(=O)c1ccc(C)cc1)c1ccccc1)=P(c1ccccc1)(c1ccccc1)c1ccccc1`, the TGI in [1] was greater than 100 µM; in assay [2], 73.5 µM; in [3] it was 36 µM; in assay [4], 69.3 µM; in [5], greater than 100 µM; in assay [6], 39 µM. The TGI is 54.7 µM in [7]; greater than 100 µM in [8]; greater than 100 µM in [9]; 56.1 µM in assay [10]; 78.3 µM in assay [11]; 80.4 µM in [12]. Further, the TGI was greater than 100 µM in [13]; 49.6 µM in [14]; 98.5 µM in assay [15]; 58.7 µM in assay [16]; 61.1 µM in assay [17]; 63.3 µM in [18]. This compound also had a TGI in [19] of 37 µM.
Turning to `Cc1ccc2c(c1)C(=O)/C(=N/Nc1ccc(Cl)cc1)CCO2`, the TGI in assay [1] was greater than 100 µM; in [2] it was greater than 100 µM; in assay [3] it was 54.6 µM; in assay [4] it was greater than 100 µM; in [5] it was greater than 100 µM; in [6] it was greater than 100 µM. Also, the TGI in assay [7], in [8], in assay [9], in [10], in [11] and in assay [12] was greater than 100 µM throughout. Also, the TGI in assay [13], in assay [14], in [15], in assay [16], in assay [17] and in [18] was greater than 100 µM each time. For the same compound, in assay [19], the TGI was greater than 100 µM.
Take `COC(=O)C(Cc1c[nH]c2ccccc12)N=C1Nc2ccncc2S(=O)(=O)N1c1ccccc1` (configuration not stated): the TGI in assay [1] was greater than 100 µM; in assay [2] it was 98.7 µM; in assay [3], 68.5 µM; in assay [4], greater than 100 µM; in [5], greater than 100 µM; in [6], 60.8 µM. The TGI is 54.8 µM in assay [7]; greater than 100 µM in assay [8]; greater than 100 µM in assay [9]; 99.5 µM in assay [10]; 32.2 µM in [11]; greater than 100 µM in assay [12]. The TGI was 35.1 µM in assay [13]; 44.9 µM in assay [14]; greater than 100 µM in assay [15]; greater than 100 µM in assay [16]; 29.3 µM in [17]; 30 µM in [18]. The TGI in [19] is 75.7 µM.
